Results: patent publication US20090055945A1, “Method for Producing Nuclear-Transplanted Egg” (priority 2005, published 2009)

Tests used:
[1] = tested on: immortalized bovine mammary epithelial cells (MECL) or bovine fetal fibroblasts (BFF); settings: MECL or BFF treated before nuclear transfer; Non-patent Document 2; cited from earlier work
[2] = tested on: nuclear transfer oocytes (nuclei from cumulus cells in enucleated oocytes); assay: Expanded blastocyst formation of nuclear transfer oocytes (cumulus cell nuclei); format: cell-based, mouse; settings: 5 μM apicidin
Method: Production of cloned mice including production of nuclear transfer embryos was carried out according to the method as described in Non-patent Document 5. Briefly, pregnant mare serum gonadotrophin (PMSG) was first administered to 8-weeks-old female B6D2F1 (C57BL/6 XDBA/2) mice (Japan SLC) for superovulation treatment. Human choriogonadotropin (hCG) was administered after 48 hours. Oocytes were collected after 16 hours. Nuclei were removed from the collected unfertilized oocytes in the presence of 5 μg/ml of cytochalasin B using a micromanipulator (enucleation).
Next, cell membranes of cumulus cells from a B6D2F1 mouse as donor somatic cells suspended in a 1.2% polyvinylpyrrolidone (PVP) solution were destroyed using an injection pipette, and the nuclei were injected into the enucleated oocytes using a micromanipulator (nuclear transfer). A piezo drive apparatus (Prime Tech) was used to generate piezo-pulses for penetration of zona pellucida or cell membranes which is required for injection of nuclei.
The thus obtained nuclear transfer oocytes were cultured in a CO2 incubator at 37° C. for 30 minutes to 1 hour. The oocytes were then transferred to an oocyte activation solution (Ca^2+-free CZB medium supplemented with 5 mM strontium chloride (SrCl2) and 5 μg/ml of cytochalasin B (Non-patent Document 10)) containing 0.5, 5, 50 or 500 nM trichostatin A (hereinafter referred to as TSA) to artificially activate the oocytes and initiate the development. Activation of oocytes was confirmed 6 hours after the initiation of activation using pronuclei formation as an index. Activated nuclear transfer oocytes were transferred to KSOM medium (Specialty Media) containing TSA at the same concentration, and cultured for further 14 hours (for 20 hours after the initiation of activation) in the medium. For a control, dimethyl sulfoxide (DMSO), which was used for dissolving TSA, was used in place of TSA to produce the same concentration.
Then, the nuclear transfer embryos at the 2-cell stage were cultured in KSOM medium without TSA until 96 hours after the initiation of activation, and development into expanded blastocysts was observed. The development into expanded blastocyst was confirmed by culturing for 96 hours after the initiation of activation and then observing under a microscope one in which the volume of embryo was increased to result in expansion of the blastocyst and thinning of zona pellucida among blastocysts having blastocoels. 80 or more embryos were examined in each of the experimental groups of the respective concentrations.
The ratio of the developed blastocysts to the number of nuclear transfer oocytes used (blastocyst formation rate (%)) was determined. The ratio of the developed expanded blastocysts to the number of oocytes that initiated cleavage (i.e., developed into the 2-cell stage) among the reconstructed nuclear transfer oocytes (blastocyst formation rate (%)) was determined.
Nuclear transfer oocytes were produced by injecting nuclei from cumulus cells into enucleated oocytes according to the method as described in Example 1, cultured in KSOM medium containing TSA at a concentration of 5 nM for various periods of time (for 0, 24, 48 or 72 hour(s) from the initiation of activation), and then cultured in KSOM medium without TSA until 96 hours after the initiation of activation. Then, development into expanded blastocysts was observed and the blastocyst formation rate was determined. […]

[3] = tested on: oocytes injected with nuclear domains of round spermatids (ROSI); assay: Paternal genome DNA methylation, spermatid injection (ROSI); format: cell-based, mouse; settings: Spermatid (ROSI); 10 μM 5-azacytidine, 20 hours
Method: The oocytes injected with the nuclear domains of round spermatids obtained by ROSI were cultured for 20 hours in the presence of 20 ng/ml of demecolcine in a medium containing 10 μM 5-azacytidine (5-aza) or 500 nM TSA as an anti-methylation agent. Similarly, injection of mature sperms was carried out (ICSI (intracytoplasmic sperm injection)). Specifically, heads of sperms were separated from the tails by applying pulses to the head-tail junctions by means of a piezo-driven pipette (PrimeTech), and injected into oocytes. The oocytes were not subjected to activation in this case.
The cultured oocytes injected with nuclei were fixed in PBS containing 4% paraformaldehyde at 4° C. overnight, washed in PBS containing 0.1% polyvinyl alcohol (PVA), and blocked in PBS containing 3% bovine serum albumin (BSA) and 0.2% Triton X-100 at 4° C. overnight. Subsequent steps were carried out at room temperature. The fixed oocytes injected with nuclei were permeabilized by treating with 0.2% Triton X-100 in PBS at room temperature. The oocytes were then treated with 2N HCl at room temperature for 50 minutes, neutralized in 100 mM Tris-HCl buffer (pH 8.0) (Non-patent Document 15), and extensively washed with PBS containing 1% BSA.
Next, incubation. with an anti-5-methylcytidine antibody (Eurogentec) in PBS containing 0.1% PVA was carried out for 2 to 3 hours. After extensively being washed, oocytes were stained with Alexa Flour-488 secondary antibody (Molecular Probes), stained with 5 μg/ml 4′,6′-diamidino-2-phenylindole (DAPI) for 30 minutes, and mounted using Vectashield (Vector Laboratory). The specimens were observed using Olympus BX51 microscope (Olympus). All images were captured with DP70 Olympus digital camera using Olympus Analysis software to apply colors to DAPI-stained DNA and merged images.
For quantitative analysis of pronuclear DNA methylation levels, fluorescence images were subjected to densitometric analysis using the program Image-J from the National Institute of Health (http://rsb.info.nih.gov/ij/). For each pronucleus, the relative intensity of methylation of the paternal genome was calculated as a percentage of the fluorescence intensity of the maternal genome. In Table 3, data with (b) and without (a) anti-methylation agent were statistically analyzed by Scheffe tests for multiple mean comparisons using the statistical program SPSS version 12.0 (SPSS Inc.). All percentile data were subjected to arcsine transformation prior to the statistical analysis.

[4] = tested on: oocytes injected with mature sperm (ICSI); assay: Paternal genome DNA methylation, mature sperm injection (ICSI); format: cell-based, mouse; settings: 10 μM 5-azacytidine, 20 hours
Method: The oocytes injected with the nuclear domains of round spermatids obtained by ROSI were cultured for 20 hours in the presence of 20 ng/ml of demecolcine in a medium containing 10 μM 5-azacytidine (5-aza) or 500 nM TSA as an anti-methylation agent. Similarly, injection of mature sperms was carried out (ICSI (intracytoplasmic sperm injection)). Specifically, heads of sperms were separated from the tails by applying pulses to the head-tail junctions by means of a piezo-driven pipette (PrimeTech), and injected into oocytes. The oocytes were not subjected to activation in this case. […]
For quantitative analysis of pronuclear DNA methylation levels, fluorescence images were subjected to densitometric analysis using the program Image-J from the National Institute of Health (http://rsb.info.nih.gov/ij/). For each pronucleus, the relative intensity of methylation of the paternal genome was calculated as a percentage of the fluorescence intensity of the maternal genome. In Table 3, data with (b) and without (a) anti-methylation agent were statistically analyzed by Scheffe tests for multiple mean comparisons using the statistical program SPSS version 12.0 (SPSS Inc.). […]

Compound: CCCC(=O)[O-].[Na+] [sodium butyrate]
- blastocyst development rate [1]: increased

Compound: CCC(=O)CCCCC[C@@H]1NC(=O)[C@H]2CCCCN2C(=O)[C@H]([C@@H](C)CC)NC(=O)[C@H](Cc2cn(OC)c3ccccc23)NC1=O [apicidin]
- increase in blastocyst formation rate vs control [2]: about 2 fold
- blastocyst formation rate ([2]; method of Example 1): 69.0%

Compound: Nc1ncn([C@@H]2O[C@H](CO)[C@@H](O)[C@H]2O)c(=O)n1 [5-aza, 5-azacytidine]
- Ratio of methylation level of paternal genome to maternal genome (%) [3]: 54.9^b %
- Ratio of methylation level of paternal genome to maternal genome (%) [4]: 17.5^b %
